Test: molar heat capacity at constant pressure
Conditions: 101.33 kPa, Liquid

CCCCCCCCn1cc[n+](C)c1.O=S(=O)([O-])C(F)(F)F [1-octyl-3-methylimidazolium trifluoromethanesulfonate]
Conditions | molar heat capacity at constant pressure [J/K/mol]
313.17 K, Large sample (1 g) DSC | 588
315.15 K, Small sample (50 mg) DSC | 604
318.14 K, Large sample (1 g) DSC | 592
320.15 K, Small sample (50 mg) DSC | 608
323.13 K, Large sample (1 g) DSC | 595
325.15 K, Small sample (50 mg) DSC | 612
328.13 K, Large sample (1 g) DSC | 595
328.15 K, modulated-temperature differential scanning calorimetry MDSC | 599
330.15 K, Small sample (50 mg) DSC | 612
333.14 K, Large sample (1 g) DSC | 595
333.15 K, modulated-temperature differential scanning calorimetry MDSC | 603
335.15 K, Small sample (50 mg) DSC | 616
338.14 K, Large sample (1 g) DSC | 598
338.15 K, modulated-temperature differential scanning calorimetry MDSC | 606
340.15 K, Small sample (50 mg) DSC | 620
343.14 K, Large sample (1 g) DSC | 599
343.15 K, modulated-temperature differential scanning calorimetry MDSC | 609
345.15 K, Small sample (50 mg) DSC | 623
348.15 K, modulated-temperature differential scanning calorimetry MDSC | 612
348.17 K, Large sample (1 g) DSC | 599
350.15 K, Small sample (50 mg) DSC | 627
353.13 K, Large sample (1 g) DSC | 601
353.15 K, modulated-temperature differential scanning calorimetry MDSC | 616
355.15 K, Small sample (50 mg) DSC | 631
358.15 K, Large sample (1 g) DSC | 605
358.15 K, modulated-temperature differential scanning calorimetry MDSC | 619
360.15 K, Small sample (50 mg) DSC | 634
363.15 K, Large sample (1 g) DSC | 610
363.15 K, modulated-temperature differential scanning calorimetry MDSC | 622
365.15 K, Small sample (50 mg) DSC | 637
368.15 K, Large sample (1 g) DSC | 616
368.15 K, modulated-temperature differential scanning calorimetry MDSC | 625
370.15 K, Small sample (50 mg) DSC | 641
373.14 K, Large sample (1 g) DSC | 617
373.15 K, modulated-temperature differential scanning calorimetry MDSC | 628
375.15 K, Small sample (50 mg) DSC | 644
378.12 K, Large sample (1 g) DSC | 621
378.15 K, modulated-temperature differential scanning calorimetry MDSC | 631
380.15 K, Small sample (50 mg) DSC | 648
383.15 K, modulated-temperature differential scanning calorimetry MDSC | 635
383.16 K, Large sample (1 g) DSC | 626
385.15 K, Small sample (50 mg) DSC | 652
388.15 K, Large sample (1 g) DSC | 631
388.15 K, modulated-temperature differential scanning calorimetry MDSC | 637
390.15 K, Small sample (50 mg) DSC | 655
393.13 K, Large sample (1 g) DSC | 636
393.15 K, modulated-temperature differential scanning calorimetry MDSC | 640
395.15 K, Small sample (50 mg) DSC | 658
398.15 K, modulated-temperature differential scanning calorimetry MDSC | 642
398.17 K, Large sample (1 g) DSC | 639
400.15 K, Small sample (50 mg) DSC | 663
403.14 K, Large sample (1 g) DSC | 642
403.15 K, modulated-temperature differential scanning calorimetry MDSC | 645
405.15 K, Small sample (50 mg) DSC | 666
408.15 K, modulated-temperature differential scanning calorimetry MDSC | 648
408.18 K, Large sample (1 g) DSC | 644
410.15 K, Small sample (50 mg) DSC | 670
413.15 K, Large sample (1 g) DSC | 647
413.15 K, modulated-temperature differential scanning calorimetry MDSC | 651
415.15 K, Small sample (50 mg) DSC | 673
418.18 K, Large sample (1 g) DSC | 649
420.15 K, Small sample (50 mg) DSC | 677
423.14 K, Large sample (1 g) DSC | 651
425.15 K, Small sample (50 mg) DSC | 680

CCCCCCn1cc[n+](C)c1.O=S(=O)([O-])C(F)(F)F [1-hexyl-3-methylimidazolium trifluoromethanesulfonate]
Conditions | molar heat capacity at constant pressure [J/K/mol]
313.14 K, Large sample (1 g) DSC | 517
315.15 K, Small sample (50 mg) DSC | 526
318.15 K, Large sample (1 g) DSC | 522
320.15 K, Small sample (50 mg) DSC | 528
323.17 K, Large sample (1 g) DSC | 525
325.15 K, Small sample (50 mg) DSC | 530
328.13 K, Large sample (1 g) DSC | 527
328.15 K, modulated-temperature differential scanning calorimetry MDSC | 519
330.15 K, Small sample (50 mg) DSC | 532
333.15 K, Large sample (1 g) DSC | 528
333.15 K, modulated-temperature differential scanning calorimetry MDSC | 522
335.15 K, Small sample (50 mg) DSC | 536
338.15 K, modulated-temperature differential scanning calorimetry MDSC | 524
338.16 K, Large sample (1 g) DSC | 531
340.15 K, Small sample (50 mg) DSC | 539
343.15 K, modulated-temperature differential scanning calorimetry MDSC | 528
343.16 K, Large sample (1 g) DSC | 534
345.15 K, Small sample (50 mg) DSC | 541
348.15 K, modulated-temperature differential scanning calorimetry MDSC | 530
348.16 K, Large sample (1 g) DSC | 535
350.15 K, Small sample (50 mg) DSC | 545
353.15 K, modulated-temperature differential scanning calorimetry MDSC | 532
353.18 K, Large sample (1 g) DSC | 539
355.15 K, Small sample (50 mg) DSC | 548
358.12 K, Large sample (1 g) DSC | 542
358.15 K, modulated-temperature differential scanning calorimetry MDSC | 535
360.15 K, Small sample (50 mg) DSC | 551
363.15 K, modulated-temperature differential scanning calorimetry MDSC | 538
363.17 K, Large sample (1 g) DSC | 545
365.15 K, Small sample (50 mg) DSC | 554
368.15 K, Large sample (1 g) DSC | 548
368.15 K, modulated-temperature differential scanning calorimetry MDSC | 540
370.15 K, Small sample (50 mg) DSC | 556
373.15 K, modulated-temperature differential scanning calorimetry MDSC | 543
373.17 K, Large sample (1 g) DSC | 550
375.15 K, Small sample (50 mg) DSC | 559
378.15 K, modulated-temperature differential scanning calorimetry MDSC | 544
378.17 K, Large sample (1 g) DSC | 552
380.15 K, Small sample (50 mg) DSC | 562
383.15 K, modulated-temperature differential scanning calorimetry MDSC | 547
383.17 K, Large sample (1 g) DSC | 555
385.15 K, Small sample (50 mg) DSC | 565
388.15 K, modulated-temperature differential scanning calorimetry MDSC | 549
388.16 K, Large sample (1 g) DSC | 558
390.15 K, Small sample (50 mg) DSC | 568
393.15 K, Large sample (1 g) DSC | 560
393.15 K, modulated-temperature differential scanning calorimetry MDSC | 552
395.15 K, Small sample (50 mg) DSC | 571
398.15 K, modulated-temperature differential scanning calorimetry MDSC | 554
398.18 K, Large sample (1 g) DSC | 562
400.15 K, Small sample (50 mg) DSC | 574
403.15 K, modulated-temperature differential scanning calorimetry MDSC | 556
403.16 K, Large sample (1 g) DSC | 564
405.15 K, Small sample (50 mg) DSC | 577
408.13 K, Large sample (1 g) DSC | 566
408.15 K, modulated-temperature differential scanning calorimetry MDSC | 557
410.15 K, Small sample (50 mg) DSC | 580
413.15 K, modulated-temperature differential scanning calorimetry MDSC | 562
413.16 K, Large sample (1 g) DSC | 569
415.15 K, Small sample (50 mg) DSC | 583
418.15 K, Large sample (1 g) DSC | 573
420.15 K, Small sample (50 mg) DSC | 586
423.17 K, Large sample (1 g) DSC | 572
425.15 K, Small sample (50 mg) DSC | 589

C1CCOC1 [tetrahydrofuran]
Small sample (50 mg) DSC
Conditions | molar heat capacity at constant pressure [J/K/mol]
180.15 K | 105.5
185.15 K | 105.6
190.15 K | 105.8
195.15 K | 106
200.15 K | 106.3
205.15 K | 106.5
210.15 K | 106.7
215.15 K | 107.2
220.15 K | 107.6
225.15 K | 107.9
230.15 K | 108.5
235.15 K | 109.2
240.15 K | 109.8
245.15 K | 110.6
250.15 K | 111.5
255.15 K | 112.4
260.15 K | 113.4
265.15 K | 114.4
270.15 K | 115.5
275.15 K | 116.6
280.15 K | 117.9
285.15 K | 119.2
290.15 K | 120.3
295.15 K | 121.7
300.15 K | 123.1
305.15 K | 124.5
310.15 K | 126
315.15 K | 127.3
320.15 K | 128.8
325.15 K | 130.5

c1ccccc1 [benzene]
Small sample (50 mg) DSC
Conditions | molar heat capacity at constant pressure [J/K/mol]
295.15 K | 134.8
300.15 K | 135.4
305.15 K | 136.5
310.15 K | 137.9
315.15 K | 139.2
320.15 K | 140.85
325.15 K | 142.5
330.15 K | 144.15
335.15 K | 145.8
340.15 K | 147.55
345.15 K | 149.3
350.15 K | 151.2
